Measured values from PubChem BioAssay (NCI).
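Values below derive from 48-hour exposures of cells grown in 96-well plates, with endpoints linearly interpolated between the two concentrations bracketing the appropriate inhibition level. GI50 = concentration required for 50% inhibition of growth. TGI: concentration producing complete growth inhibition.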

How the values were obtained:
Test in all cases: NCI-60 cell line screen, 48 h
[1] = tested on: TK-10 renal
[2] = tested on: CAKI-1 renal
[3] = tested on: A549 NSCLC
[4] = tested on: EKVX NSCLC
[5] = tested on: MDA-MB-231 breast
[6] = tested on: OVCAR-5 ovarian
[7] = tested on: 786-0 renal
[8] = tested on: K-562 leukemia
[9] = tested on: SNB-19 CNS
[10] = tested on: UACC-62 melanoma
[11] = tested on: A498 renal
[12] = tested on: SK-MEL-5 melanoma
[13] = tested on: SK-MEL-28 melanoma
[14] = tested on: RPMI-8226 leukemia
[15] = tested on: HT29 colon
[16] = tested on: HCT-116 colon
[17] = tested on: U251 CNS
[18] = tested on: BT-549 breast
[19] = tested on: SK-OV-3 ovarian
[20] = tested on: SF-295 CNS
[21] = tested on: MCF7 breast
[22] = tested on: PC-3 prostate
[23] = tested on: HS 578T breast
[24] = tested on: HCT-15 colon
[25] = tested on: IGROV1 ovarian
[26] = tested on: ACHN renal
[27] = tested on: MOLT-4 leukemia
[28] = tested on: RXF 393 renal

Q: With Cc1ccc(-c2nnc(SCc3ccc(O)c4ncccc34)o2)cc1 as the molecule, how does the GI50 [1] read?
A: Its GI50 is 1280 nM.

Q: What about the TGI [1] of the same molecule?
A: The TGI was 9240 nM.

Q: And the GI50 [2]?
A: The GI50 was 1800 nM.

Q: And the TGI [2]?
A: Its TGI is 7720 nM.

Q: And the GI50 [3]?
A: Its GI50 is 1950 nM.

Q: And the TGI [3]?
A: The TGI was > 100000 nM.

Q: And the GI50 [4]?
A: Its GI50 is 1730 nM.

Q: And the TGI [4]?
A: The TGI was 9860 nM.

Q: And the GI50 [5]?
A: Its GI50 is 2120 nM.

Q: And the TGI [5]?
A: Its TGI is 27500 nM.

Q: And the GI50 [6]?
A: The GI50 was 4820 nM.

Q: What about the TGI [6] of the same molecule?
A: The TGI was > 100000 nM.

Q: And the GI50 [7]?
A: Its GI50 is 1610 nM.

Q: And the TGI [7]?
A: Its TGI is 6810 nM.

Q: And the GI50 [8]?
A: Its GI50 is 1140 nM.

Q: What about the TGI [8] of the same molecule?
A: The TGI was 66300 nM.

Q: What about the GI50 [9] of the same molecule?
A: The GI50 was 513 nM.

Q: What about the TGI [9] of the same molecule?
A: The TGI was 14300 nM.

Q: What about the GI50 [10] of the same molecule?
A: Its GI50 is 1760 nM.

Q: What about the TGI [10] of the same molecule?
A: Its TGI is 4740 nM.

Q: What about the GI50 [11] of the same molecule?
A: The GI50 was 1080 nM.

Q: What about the TGI [11] of the same molecule?
A: The TGI was 13600 nM.

Q: What about the GI50 [12] of the same molecule?
A: Its GI50 is 844 nM.

Q: What about the TGI [12] of the same molecule?
A: Its TGI is 6950 nM.

Q: What about the GI50 [13] of the same molecule?
A: The GI50 was 1040 nM.

Q: And the TGI [13]?
A: The TGI was > 100000 nM.

Q: And the GI50 [14]?
A: The GI50 was 648 nM.

Q: What about the TGI [14] of the same molecule?
A: Its TGI is > 100000 nM.

Q: What about the GI50 [15] of the same molecule?
A: The GI50 was 6430 nM.

Q: What about the TGI [15] of the same molecule?
A: The TGI was > 100000 nM.

Q: And the GI50 [16]?
A: Its GI50 is 537 nM.

Q: And the TGI [16]?
A: Its TGI is > 100000 nM.

Q: What about the GI50 [17] of the same molecule?
A: The GI50 was 444 nM.

Q: And the TGI [17]?
A: The TGI was > 100000 nM.

Q: What about the GI50 [18] of the same molecule?
A: The GI50 was 1060 nM.

Q: And the TGI [18]?
A: The TGI was > 100000 nM.

Q: What about the GI50 [19] of the same molecule?
A: The GI50 was 1980 nM.

Q: What about the TGI [19] of the same molecule?
A: Its TGI is 6900 nM.

Q: And the GI50 [20]?
A: The GI50 was 1020 nM.

Q: What about the TGI [20] of the same molecule?
A: The TGI was 5780 nM.

Q: And the GI50 [21]?
A: Its GI50 is 388 nM.

Q: And the TGI [21]?
A: The TGI was > 100000 nM.

Q: And the GI50 [22]?
A: The GI50 was 457 nM.

Q: And the TGI [22]?
A: The TGI was > 100000 nM.

Q: What about the GI50 [23] of the same molecule?
A: The GI50 was 570 nM.

Q: What about the TGI [23] of the same molecule?
A: The TGI was > 100000 nM.

Q: What about the GI50 [24] of the same molecule?
A: Its GI50 is 492 nM.

Q: And the TGI [24]?
A: Its TGI is > 100000 nM.

Q: And the GI50 [25]?
A: The GI50 was 1550 nM.

Q: And the TGI [25]?
A: Its TGI is 9860 nM.

Q: And the GI50 [26]?
A: Its GI50 is 649 nM.

Q: And the TGI [26]?
A: The TGI was 2320 nM.

Q: And the GI50 [27]?
A: Its GI50 is 877 nM.

Q: And the TGI [27]?
A: Its TGI is > 100000 nM.

Q: And the GI50 [28]?
A: Its GI50 is 1120 nM.
